Experimental findings from patent EP0460488B1, “Sulfur-containing heterocyclic compounds” (Takeda Chemical Industries, Ltd., priority 1990, dated 1991) are described below.

The subject of the first assay is bone resorption. Nature of the assay: Study on bone resorption inhibition: 45Ca release from cultured rat fetal bones (method of Raisz). The assay is classed as cell-based, Sprague-Dawley rat. Particulars: description for DK (own example numbering); rat fetal bone culture, 2 days with test compound; mean of 5 bones; test concentration not given. As to the method: Bone resorption inhibitory activity was determined according to the method of Raisz [Journal of Clinical Investigation (J. Clin. Invest.) 44, 103-116 (1965)].
(§1) That is, a Sprague-Dawley rat at day 19 of pregnancy was subcutaneously dosed with 50 µCi of 45Ca (a radioisotope of calcium, in CaCl2). On the next day, the animal was laparotomized and the fetuses were removed aseptically. The right and left […] (radii and ulnae) of each rat fetus were dissected from the body under the dissection microscope. The connective tissue and cartilages were removed as far as possible to prepare bone culture specimens. Each piece of bone was incubated in 0.6 ml of BGJb medium (Fitton-Jackson modification [the tradename owned by GIBCO Laboratories, U.S.A.]) containing 2 mg/ml of bovine serum albumin at 37°C for 24 hours. Then, incubation was carried out for additional two days in the above-mentioned medium. The radioactivities of 45Ca in the culture medium and bone were determined and the ratio (%) of 45Ca released from the bone to the medium was calculated according to the following formula. A =(B)/(B + C)x 100 [formula] A = ratio (%) of ^45Ca released from the bone to the medium B = ^45Ca count in the medium C = ^45Ca count in the bone
The bones from the fetuses of the same litter were similarly incubated without addition of the test compound for two days and served as controls.
The values for 5 bones per group were expressed in mean. The ratio (%) of this value for the treatment group to the control value was determined.
as §1, with “of ^45Ca” for “of 45Ca”
Consider `COc1cc2c(cc1OC)C(=O)CSC(C(=O)Nc1nc(-c3ccccc3)cs1)C2` (centres unmarked) [compound 25], for which the “45Ca release (% to control)” value was 69 % to control.

For `O=C1CSC(C(=O)Nc2ccc(Cl)cc2)Cc2ccc(Cl)cc21` (centres unmarked) [compound 26], the “45Ca release (% to control)” value was 68 % to control.

In the case of `Cc1ccc2c(c1)C(=O)CSC(C(=O)Nc1ccc(Cl)cc1)C2` (centres unmarked) [compound 28], the “45Ca release (% to control)” value is listed as 61 % to control.

“methyl trans-4,7-dimethyl-5-oxo-1,2,4,5-tetrahydro-3-benzothiepine-2-carboxylate [Reference Example 32]”: the “45Ca release (% to control)” value is reported as 63 % to control.

Staying with this assay, now noted: rat fetal bone culture, 2 days with test compound; mean of 5 bones; ratio of treatment group to control; test concentration not given.
As to `COc1cc2c(cc1OC)C(=O)CSC(C(=O)Nc1nc(-c3ccccc3)cs1)C2` (centres unmarked) [Example 47], the “^45Ca release (% to control)” value is 69 % to control.

As to `O=C1CSC(C(=O)Nc2ccc(Cl)cc2)Cc2ccc(Cl)cc21` (centres unmarked) [Example 48], the “^45Ca release (% to control)” value is 68 % to control.

Regarding `Cc1ccc2c(c1)C(=O)CSC(C(=O)Nc1ccc(Cl)cc1)C2` (centres unmarked) [Example 50], the “^45Ca release (% to control)” value is recorded as 61 % to control.

As to `Cc1ccc2c(c1)C(=O)CSC(C(=O)N(C)Cc1ccccc1)C2` (centres unmarked) [Example 54], the “^45Ca release (% to control)” value is on record as 63 % to control.
